From patent US20220265759A1, “COMPOSITION AND METHOD FOR PROMOTING WOUND HEALING” (THE BOARD OF TRUSTEES OF THE UNIVERSITY OF ILLIOIS, priority 2019, published 2022)
Peptide text beside a SMILES is read from it. * marks the point of attachment. Myristoyl = CCCCCCCCCCCCCC(=O)*

Columns and labels:
NO production = NO production in db/db mouse wounds (nitrite measurement); format: in vivo, db/db mice; details: day 12, nitrite measurement
Description: Nitrite Measurement with Griess Reagent. Supernatants from confluent endothelial cells on 10-cm dishes with and without stimulation at 37° C. were analyzed for nitrite level using a Griess Reagent kit according to the manufacturer's instructions. Nitrite levels were normalized to eNOS expression level in the cells, as described in the art (Chen, et al. (2020) FASEB J. 34(4):5838-5850).
(§1) Two 8 mm full thickness excisional wounds were made on the dorsal skin of diabetic db/db mice and then 50 μl of 50 μM Myr-CBD7 peptide was topically applied. […] Reduced CCR10-eNOS interaction was also observed in the mouse wounds following treatment with Myr-CBD7 peptide as determined by Co-IP (FIG. 6).

wound blood perfusion = test: Blood perfusion by laser speckle contrast analysis (LASCA) in db/db mouse wounds; format: in vivo, db/db mice; details: day 7, 50 μM, vs control peptide
Description: Blood Perfusion Measurement. Immediately after creation of dorsal skin wounds on db/db mice using an 8 mm punch, 50 μl of 50 μM Myr-scrambled control or Myr-CBD7 peptide in F-127 gel sold under the tradename PLURONIC® was applied topically to the wounds on db/db mice. Blood perfusion was analyzed based on motion detected below the surface of the wound using a near infrared laser based PeriCam PSI laser speckle contrast analysis system (LASCA) as described previously (Elgharably, et al. (2013) Wound Repair Regen. 21(3):473-481; Das, et al. (2016) J. Immunol. 196(12):5089-5100).
To further investigate if Myr-CBD7 promotes healing of dorsal skin wounds on db/db mice by stimulating angiogenesis, blood perfusion as detected by laser speckle contrast analysis (LASCA), was monitored.

eNOS = eNOS expression in db/db mouse wounds (western blot); format: in vivo, db/db mice; details: day 12
Description: (§2) Immunoblot and Co-Immunoprecipitation (Co-IP). After serum starvation, inhibitors were added 45 minutes prior to stimulation for indicated times at 37° C., and cells were then collected and lysed for western blot analysis. After probing for p-eNOS (Ser1177), p-p85 (Tyr458), p-Src (Tyr 416), and p-ERK (T202/Y204), the same blots were stripped and re-probed for total proteins mentioned above. For detection of CCL28-induced protein levels of β-catenin and Bcl-2, near-confluent endothelial cells were incubated with 500 ng/ml CCL28 for 24 hours in EGM-2 medium containing 1% FBS.
as §1

cell viability = test: Cell viability; format: cell-based
CCR10-eNOS interaction = biological target: T1, CCR10-eNOS interaction (Homo sapiens, UniProt P46092); test: Co-IP of CCR10-eNOS interaction in HUVECs stimulated with A23187; format: cell-based; details: endothelial cells (HUVECs), pretreatment 50 μM, 5 μM A23187 for 5 minutes, vs control peptide
T1 construct: host or cells: HUVEC (primary human umbilical vein endothelial cells)
T1 sequence (P46092 1-362): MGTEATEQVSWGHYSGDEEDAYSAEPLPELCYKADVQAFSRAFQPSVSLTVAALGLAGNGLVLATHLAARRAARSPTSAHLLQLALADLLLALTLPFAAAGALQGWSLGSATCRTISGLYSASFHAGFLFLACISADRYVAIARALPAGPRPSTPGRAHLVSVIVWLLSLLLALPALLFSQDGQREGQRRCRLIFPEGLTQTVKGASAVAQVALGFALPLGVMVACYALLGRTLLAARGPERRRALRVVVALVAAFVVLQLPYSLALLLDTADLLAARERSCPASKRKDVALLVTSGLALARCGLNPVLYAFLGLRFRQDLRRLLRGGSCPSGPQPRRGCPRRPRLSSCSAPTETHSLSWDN
Description: as §2
Co-IP Experiments, cells or mouse wounds were collected after treatment, and lysed in 2% ODG in Tris buffer. The homogenates were further prepared for Co-IP experiments as described in the art (Chen, et al. (2018) Mol. Biol. Cell 29(10):1190-1202; Chen, et al. (2020) FASEB J. 34(4):5838-5850; Chen, et al. (2015) Ann. Rheum. Dis. 74:1898-1906).
Therefore, the effect of inhibition of CCR10-eNOS interaction was investigated using a panel of cell-permeable peptides based on the sequence of the predicted interaction domain on eNOS. Similar peptides have been described in determining the solution structure of calmodulin bound to the target peptide of eNOS (Piazza, et al. (2014) Biochemistry 53(8):1241-9; Piazza, et al. (2016) Biochemistry 55(42):5962-71). First, myristoylated 20 amino acid peptide (491-[…]-510 (P1); SEQ ID NO:61) was synthesized based on the sequence of human eNOS (which is conserved in mouse eNOS). […] It was subsequently determined whether truncated versions of the CBD-derived peptide would have the same effect.

CD31 = test: Microvessel density (CD31 staining) in db/db mouse wounds; format: in vivo, db/db mice; details: day 12
Source text: CD31 Staining in Mouse Wound Tissue. Formalin-fixed mouse skin samples were processed on ASP300 S automated tissue processor (Leica Biosystems, Buffalo Grove, Ill.) using a standard overnight processing protocol and embedded into paraffin blocks. Tissue was sectioned at 5 μm and stained with rabbit anti-CD31 antibody. Sections were deparaffinized, rehydrated, and stained on BOND″ RX automated stainer (Leica Biosystems, Buffalo Grove, Ill.) using a preset protocol. In brief, sections were subjected to EDTA-based antigen retrieval with BOND™ ER2 solution (Leica Biosystems, Buffalo Grove, Ill.) for 20 minutes at 100° C. Endogenous peroxidase activity and non-specific binding was blocked by treating samples with peroxidase block and protein block with Background Sniper (Biocare Medical, Pacheco, Calif.) for 15 minutes and 30 minutes at room temperature, respectively. Sections were then incubated with the primary antibody diluted at 1:200 for 30 minutes at room temperature. BOND™ Polymer Refine Detection kit (Leica Biosystems, Buffalo Grove, Ill.) was used for detection. […]
as §1

HEK/eNOS cells = test: NO production in HEK/eNOS cells; format: cell-based, human; details: HEK/eNOS cells with/without co-expression of CCR10-GFP, pretreatment, compared with control peptide

CCR10-eNOS interaction (Co-IP) (CCR10-eNOS interaction): significant reduction
CCR10-eNOS interaction (Co-IP) (CCR10-eNOS interaction; listed as P4): completely blocked
SMILES: CCCCCCCCCCCCCC(=O)N[C@@H](CCCCN)C(=O)N[C@H](C(=O)N[C@@H](CO)C(=O)N[C@@H](C)C(=O)N[C@@H](CO)C(=O)N[C@@H](CC(C)C)C(=O)N[C@@H](CCSC)C(=O)O)[C@@H](C)CC [Myr-CBD7, myr-KISASLM] (Myristoyl-KISASLM-OH)
NO production in wounds (NO production): significantly elevated
blood perfusion (wound blood perfusion): significantly increased
eNOS expression in wounds (eNOS): significantly elevated
concentration without adversely affecting cell viability (cell viability): up to 100 μM
microvessel density (CD31 staining) (CD31): enhanced
NO production (HEK/eNOS cells): elevated significantly
